Test results reported in PubChem BioAssay AID1963972 (Molecular Pharmacology Branch, DTP, NCI, 2024).

Tested on: 945468-187-T-J2-PDC spheroids viability
Assay: Anticancer human tumor 945468-187-T-J2-PDC patient-derived rectal carcinoma cell line growth inhibition [PI3K]
Conditions: spheroids with HUVEC and MSC; for IC50: curve of first compound; for viability, T/C: stronger effect = lower value
In short: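 Stroma-containing spheroids: tumor line, pooled-donor HUVEC, hMSC. Treatments: targeted agents with PI3K inhibitors. Dosing: clinically relevant, half-log spacing, 10 microM ceiling without known Cmax. Read-out: cell viability.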

[1] = second compound 0.00316 µM, first compound 0.0316 µM
[2] = second compound 0.00316 µM, first compound 0.1 µM
[3] = second compound 0.01 µM, first compound 0.0316 µM
[4] = second compound 0.01 µM, first compound 0.1 µM
[5] = second compound 0.0316 µM, first compound 0.0316 µM
[6] = second compound 0.0316 µM, first compound 0.1 µM
[7] = second compound 0.1 µM, first compound 0.0316 µM
[8] = second compound 0.1 µM, first compound 0.1 µM
[9] = second compound 0.316 µM, first compound 0.0316 µM
[10] = second compound 0.316 µM, first compound 0.1 µM
[11] = second compound 1 µM, first compound 0.0316 µM
[12] = second compound 1 µM, first compound 0.1 µM
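Further: spheroids exposed to compounds for seven days before reading.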

CC(C)NCC(C(=O)N1CCN(c2ncnc3c2C(C)CC3O)CC1)c1ccc(Cl)cc1 (centres undefined) + COc1c(OCCCN2CCOCC2)ccc2c3n(c(=NC(=O)c4cnc(N)nc4)nc12)CCN3
IC50 (second compound 0.00316 µM): > 10000 nM
IC50 (second compound 0.01 µM): > 10000 nM
IC50 (second compound 0.0316 µM): > 10000 nM
IC50 (second compound 0.1 µM): > 10000 nM
IC50 (second compound 0.316 µM): < 31.6 nM
IC50 (second compound 1 µM): < 31.6 nM
viability, T/C [1]: 88.9%
viability, T/C [2]: 110%
viability, T/C (second compound 0.00316 µM, first compound 0.316 µM): 129%
viability, T/C (second compound 0.00316 µM, first compound 1 µM): 106%
viability, T/C (second compound 0.00316 µM, first compound 3.16 µM): 110%
viability, T/C (second compound 0.00316 µM, first compound 10 µM): 90.3%
viability, T/C [3]: 104%
viability, T/C [4]: 109%
viability, T/C (second compound 0.01 µM, first compound 0.316 µM): 111%
viability, T/C (second compound 0.01 µM, first compound 1 µM): 87.7%
viability, T/C (second compound 0.01 µM, first compound 3.16 µM): 90.2%
viability, T/C (second compound 0.01 µM, first compound 10 µM): 86.6%
viability, T/C [5]: 83.6%
viability, T/C [6]: 125%
viability, T/C (second compound 0.0316 µM, first compound 0.316 µM): 112%
viability, T/C (second compound 0.0316 µM, first compound 1 µM): 103%
viability, T/C (second compound 0.0316 µM, first compound 3.16 µM): 84%
viability, T/C (second compound 0.0316 µM, first compound 10 µM): 101%
viability, T/C [7]: 87.2%
viability, T/C [8]: 106%
viability, T/C (second compound 0.1 µM, first compound 0.316 µM): 120%
viability, T/C (second compound 0.1 µM, first compound 1 µM): 80.5%
viability, T/C (second compound 0.1 µM, first compound 3.16 µM): 82.3%
viability, T/C (second compound 0.1 µM, first compound 10 µM): 86.1%
viability, T/C [9]: 47.1%
viability, T/C [10]: 51.6%
viability, T/C (second compound 0.316 µM, first compound 0.316 µM): 39.7%
viability, T/C (second compound 0.316 µM, first compound 1 µM): 44.6%
viability, T/C (second compound 0.316 µM, first compound 3.16 µM): 45.4%
viability, T/C (second compound 0.316 µM, first compound 10 µM): 36.8%
viability, T/C [11]: 21%
viability, T/C [12]: 21.3%
viability, T/C (second compound 1 µM, first compound 0.316 µM): 23.3%
viability, T/C (second compound 1 µM, first compound 1 µM): 20.9%
viability, T/C (second compound 1 µM, first compound 3.16 µM): 24.6%
viability, T/C (second compound 1 µM, first compound 10 µM): 21.6%

Cn1ncnc1[C@H]1c2n[nH]c(=O)c3cc(F)cc(c23)N[C@@H]1c1ccc(F)cc1 + COc1c(OCCCN2CCOCC2)ccc2c3n(c(=NC(=O)c4cnc(N)nc4)nc12)CCN3
IC50 (second compound 0.00316 µM): > 100 nM
IC50 (second compound 0.01 µM): > 100 nM
IC50 (second compound 0.0316 µM): > 100 nM
IC50 (second compound 0.1 µM): > 100 nM
IC50 (second compound 0.316 µM): < 0.316 nM
IC50 (second compound 1 µM): < 0.316 nM
viability, T/C (second compound 0.00316 µM, first compound 0.000316 µM): 107%
viability, T/C (second compound 0.00316 µM, first compound 0.001 µM): 114%
viability, T/C (second compound 0.00316 µM, first compound 0.00316 µM): 90.7%
viability, T/C (second compound 0.00316 µM, first compound 0.01 µM): 104%
viability, T/C [1]: 97.3%
viability, T/C [2]: 108%
viability, T/C (second compound 0.01 µM, first compound 0.000316 µM): 105%
viability, T/C (second compound 0.01 µM, first compound 0.001 µM): 128%
viability, T/C (second compound 0.01 µM, first compound 0.00316 µM): 101%
viability, T/C (second compound 0.01 µM, first compound 0.01 µM): 84%
viability, T/C [3]: 98.4%
viability, T/C [4]: 96.8%
viability, T/C (second compound 0.0316 µM, first compound 0.000316 µM): 98.7%
viability, T/C (second compound 0.0316 µM, first compound 0.001 µM): 107%
viability, T/C (second compound 0.0316 µM, first compound 0.00316 µM): 85.3%
viability, T/C (second compound 0.0316 µM, first compound 0.01 µM): 104%
viability, T/C [5]: 95.2%
viability, T/C [6]: 88.5%
viability, T/C (second compound 0.1 µM, first compound 0.000316 µM): 93.2%
viability, T/C (second compound 0.1 µM, first compound 0.001 µM): 75.7%
viability, T/C (second compound 0.1 µM, first compound 0.00316 µM): 83.6%
viability, T/C (second compound 0.1 µM, first compound 0.01 µM): 81.3%
viability, T/C [7]: 84.3%
viability, T/C [8]: 88.1%
viability, T/C (second compound 0.316 µM, first compound 0.000316 µM): 34%
viability, T/C (second compound 0.316 µM, first compound 0.001 µM): 35.2%
viability, T/C (second compound 0.316 µM, first compound 0.00316 µM): 43.5%
viability, T/C (second compound 0.316 µM, first compound 0.01 µM): 39.3%
viability, T/C [9]: 39.3%
viability, T/C [10]: 44%
viability, T/C (second compound 1 µM, first compound 0.000316 µM): 21%
viability, T/C (second compound 1 µM, first compound 0.001 µM): 19.7%
viability, T/C (second compound 1 µM, first compound 0.00316 µM): 23.7%
viability, T/C (second compound 1 µM, first compound 0.01 µM): 22.8%
viability, T/C [11]: 20.2%
viability, T/C [12]: 20.8%
